#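 Compound exposure: 48 hours, 5 concentrations, 96-well plates. At the GI50, growth is halved. TGI is the concentration that stops growth completely.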
# Assays:
# Assay in all cases: NCI tumour cell line growth inhibition, 48 h
# A498 renal = test system: A498 renal
# HCT-116 colon = test system: HCT-116 colon
# HOP-62 NSCLC = test system: HOP-62 NSCLC
# HS 578T breast = test system: HS 578T breast
# HT29 colon = test system: HT29 colon
# KM12 colon = test system: KM12 colon
# MDA-MB-231 breast = test system: MDA-MB-231 breast
# MOLT-4 leukemia = test system: MOLT-4 leukemia
# OVCAR-4 ovarian = test system: OVCAR-4 ovarian
# OVCAR-5 ovarian = test system: OVCAR-5 ovarian
# SK-MEL-28 melanoma = test system: SK-MEL-28 melanoma
# HOP-92 NSCLC = test system: HOP-92 NSCLC
SMILES,TGI (A498 renal),TGI (HCT-116 colon),TGI (HOP-62 NSCLC),TGI (HS 578T breast),TGI (HT29 colon),TGI (KM12 colon),TGI (MDA-MB-231 breast),TGI (MOLT-4 leukemia),TGI (OVCAR-4 ovarian),TGI (OVCAR-5 ovarian),TGI (SK-MEL-28 melanoma),TGI (HOP-92 NSCLC),GI50 (HCT-116 colon),GI50 (OVCAR-4 ovarian),GI50 (OVCAR-5 ovarian),GI50 (SK-MEL-28 melanoma)
COC(=O)c1cc(NC(=O)Cc2c[nH]c3ccccc23)cn1C,> 100 µM,> 100 µM,> 100 µM,> 100 µM,> 100 µM,> 100 µM,> 100 µM,> 100 µM,> 100 µM,> 100 µM,> 100 µM,,,,,
COc1cccc(/C=C2\S/C(=N/Nc3nc(C)c(C)s3)NC2=O)c1O,> 100 µM,> 100 µM,> 100 µM,,> 100 µM,> 100 µM,> 100 µM,> 100 µM,> 100 µM,> 100 µM,> 100 µM,> 100 µM,,,,
CSc1nc2c(c(=O)n1C)N=C(c1ccc([N+](=O)[O-])cc1)CC(c1ccccc1)N2 (stereo unspecified),> 100 µM,> 100 µM,> 100 µM,,> 100 µM,> 100 µM,> 100 µM,> 100 µM,> 100 µM,> 100 µM,> 100 µM,> 100 µM,,,,
CCCc1cc(COC)c(C#N)c(=O)[nH]1,> 100 µM,> 100 µM,> 100 µM,> 100 µM,> 100 µM,> 100 µM,> 100 µM,> 100 µM,> 100 µM,> 100 µM,> 100 µM,,,,,
CC(C)C1NC(=O)CC(c2ccccc2)N(N=O)C1c1ccccc1 (stereo unspecified),> 100 µM,> 100 µM,> 100 µM,,> 100 µM,> 100 µM,,> 100 µM,> 100 µM,> 100 µM,> 100 µM,> 100 µM,,,,
CCCCCc1c(CCCC)c(=O)[nH]c2nc(NC(=O)CCCC)ccc12,> 100 µM,> 100 µM,> 100 µM,,,> 100 µM,> 100 µM,> 100 µM,> 100 µM,> 100 µM,> 100 µM,> 100 µM,,,,
COc1ccc(-c2c3c(n(C4OC(CO)C(O)C(O)C4O)c(=S)c2C#N)CCCC3)cc1 (stereo unspecified),> 100 µM,> 100 µM,> 100 µM,> 100 µM,> 100 µM,> 100 µM,> 100 µM,> 100 µM,> 100 µM,> 100 µM,,,,,,
O=C1CC(CC(=O)c2ccc(Br)cc2)C(=O)/C1=C(/O)c1ccc(Br)cc1 (stereo unspecified),> 100 µM,> 100 µM,> 100 µM,> 100 µM,> 100 µM,> 100 µM,> 100 µM,> 100 µM,,> 100 µM,> 100 µM,> 100 µM,,,,
CC(Nc1ccc(Cl)c(Cl)c1)c1ccncc1 (stereo unspecified),61 µM,36.5 µM,49.7 µM,,72.4 µM,40.1 µM,45.1 µM,> 100 µM,> 100 µM,,> 100 µM,54.8 µM,,,,
COc1cc(C2(c3ncc[nH]3)SSSCC2O)ccc1O (stereo unspecified),> 100 µM,> 100 µM,> 100 µM,,> 100 µM,> 100 µM,,> 54.7 µM,> 63.7 µM,> 100 µM,> 100 µM,58.3 µM,,,,
Clc1ccc(CCN[C@H]2CCCC[C@H]2N2CCCC2)cc1Cl,40.5 µM,> 100 µM,48.2 µM,> 100 µM,49.9 µM,35.1 µM,> 100 µM,> 100 µM,89.4 µM,78.1 µM,86.2 µM,,,,,
Cc1ccc(C)n2c1nc1ccccc12,33.7 µM,,> 100 µM,> 100 µM,> 100 µM,> 100 µM,,> 100 µM,,> 100 µM,> 100 µM,> 100 µM,,,,
CCOC(=O)c1c(NC(=S)Nc2ccc(Cl)cc2)sc2c1CCN(C)C2,> 100 µM,> 100 µM,> 100 µM,> 100 µM,> 100 µM,> 100 µM,> 100 µM,> 100 µM,,> 100 µM,,,,,,
COc1ccccc1C(O)[C@@H]1C[C@@H]2[C@H]3CC[C@@](C)([C@@H]2O1)C3(C)C (stereo partly specified),29.5 µM,43.1 µM,35.1 µM,35.3 µM,39.1 µM,41.6 µM,34.4 µM,39 µM,,38.6 µM,37.3 µM,30.7 µM,,,,
C=CC1CN(C(=O)OCC)N(C(=O)OCC)C1CCc1ccccc1 (stereo unspecified),,> 100 µM,> 100 µM,> 100 µM,> 100 µM,> 100 µM,> 100 µM,> 100 µM,> 100 µM,> 100 µM,> 100 µM,> 100 µM,,,,
OC(CN(CCCl)CCCl)C(O)C(O)C(O)CN(CCCl)CCCl (stereo unspecified),> 100 µM,> 100 µM,> 100 µM,> 100 µM,> 100 µM,> 100 µM,> 100 µM,,,> 100 µM,> 100 µM,> 100 µM,,,,
CC(=O)O[C@H]1C(=O)[C@@]2(C)[C@H]([C@H](OC(=O)c3ccccc3)[C@]3(O)C[C@H](OC(=O)[C@H](O)[C@@H](NC(=O)c4ccco4)c4ccccc4)C(C)=C1C3(C)C)[C@]1(OC(C)=O)CO[C@@H]1C[C@@H]2O,> 12.5 µM,> 12.5 µM,> 12.5 µM,0.00279 µM,> 12.5 µM,> 12.5 µM,> 12.5 µM,> 12.5 µM,> 12.5 µM,> 12.5 µM,> 12.5 µM,,,,,
CCCCc1ccc(Nc2nc(OC)c3ncn(C4CC(O)C(CO)O4)c3n2)cc1 (stereo unspecified),35.3 µM,29.8 µM,94.7 µM,42 µM,37.1 µM,32 µM,38 µM,36.7 µM,35.9 µM,> 100 µM,,5.03 µM,,,,
C/C(=N\NC(=O)c1ccccc1O)c1cccc(/C(C)=N/NC(=O)c2ccccc2O)n1.O=S(=O)([O-])[O-].[Fe+2],,> 100 µM,> 100 µM,,> 100 µM,> 100 µM,,> 100 µM,> 100 µM,> 100 µM,> 100 µM,> 100 µM,69.2 µM,> 100 µM,> 100 µM,> 100 µM
